Reference: publication PMC12145828 (The Journal of Biological Chemistry, 2025)
Where “and” joins values, the source holds several entries; their conditions need not be identical. Equal values may be shown once. Read-outs that look alike come from different tables or passages of the source.

Legend:
[1] = target: T1, human DP receptors (Homo sapiens, UniProt Q13258); assay: cAMP formation assay in HEK-DP cells; type: cell-based; conditions: for effect on DP receptors in terms of cAMP accumulation: at least up to 100 nM; for τ (cAMP formation), operational efficacy / Kd / τ' (cAMP formation): Black/Leff operational model; for τ (cAMP formation), operational efficacy / Kd: partial agonists; for Kd: read-out: KA (cAMP formation), apparent affinity; for Emax: 60 min, normalized to 100 nM PGD2-stimulated cAMP as 100%; for EC50: 60 min treatment; for τ' (cAMP formation): full agonists, τ' = KA' x R
T1 construct: expressed in transfected cells
T1 sequence (Q13258 1-359): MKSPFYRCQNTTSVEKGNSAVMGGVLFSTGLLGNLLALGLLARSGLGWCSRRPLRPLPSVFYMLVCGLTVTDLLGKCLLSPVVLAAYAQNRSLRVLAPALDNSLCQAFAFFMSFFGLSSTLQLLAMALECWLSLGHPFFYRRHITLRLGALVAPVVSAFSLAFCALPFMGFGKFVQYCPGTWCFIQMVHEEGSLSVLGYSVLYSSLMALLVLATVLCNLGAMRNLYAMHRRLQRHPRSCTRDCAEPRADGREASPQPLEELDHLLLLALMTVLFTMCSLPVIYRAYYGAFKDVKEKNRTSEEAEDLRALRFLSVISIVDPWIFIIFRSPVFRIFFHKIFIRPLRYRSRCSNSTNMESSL
Experimental: HEK-DP cells were cultured in 6-well plates and, prior to the experiments, the medium was switched from DMEM to Opti-MEM (Thermo Fisher Scientific) containing 250 μg/ml geneticin, 200 μg/ml hygromycin B, and 100 μg/ml gentamicin for 16 h. […] Three hundred microliters of TE buffer (50 mM Tris–HCl, 4 mM EDTA [pH 7.5]) was added, and cells were scraped and transferred to microcentrifuge tubes. Samples were boiled for 8 min, placed on ice, and then centrifuged for 1 min at 16,000g. Between 5 and 25 μl of the supernatants representing approximately 10^4 cells was added to 50 μl of TE buffer containing [^3H]cAMP (PerkinElmer Life Science) and then to 100 μl of 0.06 mg/ml PKA (Sigma–Aldrich; #P5511). The mixture was vortexed and incubated on ice for 120 min. Samples were added to 100 μl of TE buffer containing 2% of bovine serum albumin and 26 mg/ml of powdered activated charcoal (Sigma–Aldrich; #C7606). After vortexing and centrifugation at 16,000g for 5 min, 200 μl of the supernatants were transferred to vials for liquid scintillation.
(§1) The equation "operational model-partial agonist" was performed using the results presented in Figure 2, as reported previously ([20]). The basal level was 0 (Fig. 2A; cAMP) or 1 (Fig. 2B, TCF), and Hill slopes were specified as 1. […] The total responses evoked by the precursor prostanoid and its metabolites were calculated using the formula below ([23]): Response=[A1]/KA1×Tau1+[A2]/KA2×Tau2/[A1]/KA1×(Tau1+1)+[A2]/KA2×(Tau2+1)+1×EffectMax

[2] = target: T1, human DP receptors; assay: TCF/β-catenin-mediated luciferase reporter assay in HEK-DP cells; type: cell-based; conditions: for effect on DP receptor-mediated activation of TCF/β-catenin signaling / Emax (fold), β-catenin/TCF-mediated luciferase activity / EC50 / Emax: HEK-DP cells; for effect on DP receptor-mediated activation of TCF/β-catenin signaling: up to 100 nM; for τ (TCF transcriptional activity), operational efficacy / Kd: Black/Leff operational model, partial agonists; for Kd: read-out: KA (TCF transcriptional activity), apparent affinity; for Emax (fold), β-catenin/TCF-mediated luciferase activity / Emax: 16 h; for Emax (fold), β-catenin/TCF-mediated luciferase activity: vehicle-treated control as 1.0; for EC50: 16 h treatment; for Emax: read-out: Emax of TCF/β-catenin activity as % of the PGD2 value
Experimental: HEK-DP cells were cultured in 6-well plates and, prior to the experiments, medium was switched to Opti-MEM for 16 h with antibiotics, as stated previously. Cells were transiently transfected using HyliMax reagent (Dojindo) with 400 ng/well of either TOP flash or FOP flash reporter plasmids and 2 ng/well of pRL-CMV plasmid (Promega), as described previously ([20]). […] Cells were then lysed and assayed using a dual luciferase reporter assay system (Promega) according to the manufacturer's instructions with TECAN infinite M200 (TECAN). Data were normalized by calculating the ratios of firefly luciferase values to corresponding renilla luciferase scores and corrected for background activity by subtracting FOP flash scores from the corresponding TOP flash values, as described previously ([20]).
as §1

[3] = target: T1, human DP receptors; assay: competitive whole-cell [^3H]PGD2 radioligand binding assay in HEK-DP cells; conditions: for binding to DP receptors / competition with [^3H]PGD2: at least to a concentration of 100 nM (data not shown)
Experimental: The medium of HEK-DP cells cultured in 10-cm dishes was switched from DMEM containing 10% fetal bovine serum to Opti-MEM at 37 °C for 16 h containing antibiotics, as stated previously. Cells were trypsinized and then resuspended at 1.0 x 10^6 cells/sample in 100 μl of ice-cold 10 mM HEPES buffer (pH 7.4) containing 1 mM EDTA and 10 mM MnCl2 (Sigma–Aldrich). […] Samples were incubated for 2 h at 4 °C, and then the assay was terminated by filtration through Whatman GF/C glass filters (Whatman). Filters were then washed three to five times with ice-cold HEPES buffer, and radioactivity was measured by liquid scintillation counting ([20]).

[4] = cited from earlier work
[5] = test system: platelets; set-up: method as in PMID 17452035; conditions: collagen-induced platelet aggregation; cited from earlier work

effect on DP receptors in terms of cAMP accumulation ([1]; HEK-DP cells) | effect on DP receptor-mediated activation of TCF/β-catenin signaling [2] | binding to DP receptors / competition with [^3H]PGD2 [3] | τ (cAMP formation), operational efficacy [1] | Kd [1] [nM] | Emax ([1]; HEK-DP cells) [%] | EC50 ([1]; HEK-DP cells) | τ (TCF transcriptional activity), operational efficacy [2] | Kd [2] [nM] | Emax (fold), β-catenin/TCF-mediated luciferase activity [2] | EC50 [2] | Emax [2] [%] | τ' (cAMP formation) [1] | IC50 [3] [nM] | Compound | other results
little effects | little effect | could not bind to DP receptors |  |  |  |  |  |  |  |  |  |  |  | CCCCC/C=C/C=C1/C(=O)C[C@H](O)[C@@H]1C/C=C\CCCC(=O)O [15-d-PGD2, 15-deoxy-Δ^12,14-PGD2] | 
little effects | little effect | could not bind to DP receptors |  |  |  |  |  |  |  |  |  |  |  | CCCCC/C=C\C=C1\C(=O)C=C[C@@H]1C/C=C\CCCC(=O)O [15-d-PGJ2, 15-deoxy-Δ^12,14-PGJ2] | 
 |  |  | 0.17 | 15 | ~14 | ~62.4 nM and 62.4 nM | 0.21 | 18.9 | about 1.28 fold | 34.7 nM | ~40 |  |  | CCCCCC(=O)CC[C@H]1C(=O)C[C@H](O)[C@@H]1C/C=C\CCCC(=O)O [DK-PGD2, 13,14-dihydro-15-keto PGD2] | 
 |  |  |  |  | 100 | ~0.3 nM and 0.301 nM |  |  |  | ~0.08 nM and 0.0892 nM |  | 11.48 | 2.48 | CCCCC[C@H](O)/C=C/[C@H]1C(=O)C[C@H](O)[C@@H]1C/C=C\CCCC(=O)O [PGD2, Prostaglandin D2] | half-life in blood ([4]; blood): 0.9 min; half-life in plasma ([4]; plasma): 30 min; half-life in blood ([4]; printed as blood): 30 min
 |  |  |  |  | 102 ± 20.2 | ~0.05 nM and 0.0513 nM |  |  |  | ~0.08 nM and 0.0758 nM |  | 86.76 | 5.11 | CCCCC[C@H](O)/C=C/[C@H]1C(=O)C=C[C@@H]1C/C=C\CCCC(=O)O [PGJ2, prostaglandin J2] | time-dependent cAMP formation compared with PGD2, with IBMX pretreatment ([1]; HEK-DP cells, 0.3 nM ligand, 0.1 mg/ml IBMX for 25 min): significantly more cAMP from 5 to 60 min compared with PGD2; time-dependent cAMP formation compared with PGD2, without IBMX pretreatment ([1]; HEK-DP cells, 0.3 nM ligand, no IBMX): significantly form more cAMP from 10 to 30 min compared with PGD2; potency of inhibiting platelet aggregation, times lower than that of PGD2 [5]: 13 times
 |  |  | 4.08 | 117 | ~67 | ~28.9 nM and 28.9 nM | 2.44 | 29.8 | 2.21 fold | 8.96 nM | ~70 |  |  | CCCCCC(O)CC=C1C(=O)C=CC1CC=CCCCC(=O)O (stereo not shown) [Δ^12-PGJ2] | 
